Measurements taken from patent US10576102B2, “KOC1-derived peptide and vaccine including same” (ONCOTHERAPY SCIENCE, INC., priority 2014, dated 2020).
“Also recorded” adds a separate entry of the source.

Legend:
peptide-pulsed C1R-A01 [1] = test: In vitro CTL induction, IFN-gamma ELISPOT assay (HLA-A*0101); format: cell-based, human; conditions: CTLs induced with peptide-pulsed DCs from HLA-A*0101-positive volunteers; day 21; vs peptide-pulsed C1R-A01, compared with unpulsed control
Method: C1R (C1R-A01) that stably expresses HLA-A*0101 was used as a stimulator cell. A cDNA encoding the open-reading frame of HLA-A*0101 was amplified by PCR and cloned into an expression vector. C1R cells were transfected with the expression vector, and then selected using G418 (Invitrogen) for two weeks. The G418-selected cells were seeded into wells containing G418-added culture medium in a 96-well plate, and further cultured for 30 days. The exogenous HLA-A*0101 expression in C1R cells was verified by flow cytometric analysis.
Monocyte-derived dendritic cells (DCs) were used as the antigen-presenting cell to induce a cytotoxic T lymphocyte (CTL) response against peptides presented on human leukocyte antigens (HLAs). As described in the other sections, DCs were generated in vitro (Nakahara S et al., Cancer Res 2003, 63(14): 4112-8). Specifically, peripheral-blood mononuclear cells isolated from healthy volunteers (HLA-A*0101-positive) with the Ficoll-Paque plus solution (Pharmacia) were separated by attaching to plastic tissue culture dishes (Becton Dickinson) and concentrated as a monocyte fraction. The monocyte-concentrated population was cultured in the presence of 1000 IU/ml granulocyte macrophage colony-stimulating factor (R&D System) and 1000 IU/ml interleukin(IL)-4 (R&D System) in an AIM-V medium (Invitrogen) containing 2% heat-inactivated autologous serum (AS). After seven days of culturing, the cytokine-induced DCs were pulsed with 20 micro-g/ml each of the synthesized peptides in an AIM-V medium at 37 degrees C. for three hours in the presence of 3 micro-g/ml beta 2-microglobulin. Next, these peptide-pulsed DCs were inactivated by X-ray irradiation (20 Gy), and mixed in a 1:20 ratio with autologous CD8^+ T cells obtained by positive selection using the CD8 Positive Isolation Kit (Dynal). These culture products were seeded in a 48-well plate (Corning). Each well was made to contain 1.5×10^4 peptide-pulsed DCs, 3×10^5 CD8^+ T cells and 10 ng/ml IL-7 (R&D System) in 0.5 ml of the AIM-V/2% AS medium. Three days later, these culture products were added with a final concentration of 20 IU/ml IL-2 (CHIRON). On day 7 and day 14, T cells were further stimulated with peptide-pulsed autologous DCs. The DCs were prepared every time by the same method as above. On day 21, after the third peptide stimulation, CTL activities were examined against the peptide-pulsed C1R-A01 cells (Tanaka H et al., Br J Cancer 2001, 84(1): 94-9; Umano Y et al., Br J Cancer 2001, 84(8): 1052-7; Uchida N et al., Clin Cancer Res 2004, 10(24): 8577-86; Suda T et al., Cancer Sci 2006, 97(5): 411-9; Watanabe T et al., Cancer Sci 2005, 96(8): 498-506).
(§1) Specifically, peptide-pulsed C1R-A01 (1×10^4 cells/well) was prepared as the stimulator cell. The induced CTLs, i.e., CTL lines and CTL clones, were used as the responder cell. The IFN-gamma ELISPOT assay and IFN-gamma ELISA were performed according to the manufacturer's manual.

[2] = test system: COS7 cells transfected with both KOC1 and HLA-A*0101; test: Specific CTL activity against target cells expressing KOC1 and HLA-A*0101; format: cell-based, African green monkey; conditions: listed as KOC1-A01-9-96
Method: as §1
A cDNA encoding the open-reading frame of a target gene or HLA-A*0101 was amplified by PCR. The PCR-amplified product was cloned into an expression vector. Expression vectors were transfected using Lipofectamine 2000 (Invitrogen) following the manufacturer's recommended protocol. Two days after transfection, the transfected cells were harvested using versene (Invitrogen), and used as the stimulator cell for CTL activity assay (5×10^4 cells/well).
The CTL clone established against KOC1-A01-9-96 (SEQ ID NO: 86) was investigated for its ability to recognize target cells expressing KOC1 and the HLA-A*0101 molecule. COS7 cells transfected with both full-length KOC1 and the HLA-A*0101 gene (a specific model of target cells expressing KOC1 and the HLA-A*0101 gene) were prepared as the target cell. COS7 cells transfected with either full-length KOC1 or HLA-A*0101 were prepared as the control.

peptide-pulsed C1R-A01 [3] = test: IFN-gamma ELISA of CTL lines and CTL clone (HLA-A*0101); format: cell-based, human
Method: CTLs were propagated in culture using methods similar to those disclosed by Riddell et al. (Walter E A et al., N Engl J Med 1995, 333(16): 1038-44; Riddell S R et al., Nat Med 1996, 2(2): 216-23). The CTLs were co-cultured in a total of 25 ml AIM-V medium containing 5% AS and 40 ng/ml anti-CD3 antibody with two types of Mitomycin C-treated human B lymphoblastoid cell lines at 5×10^6 cells. One day after beginning of the culturing, 120 IU/ml IL-2 was added to the culture. On days 5, 8 and 11, a fresh AIM-V/5% AS medium containing 30 IU/ml IL-2 was added to the culture (Tanaka H et al., Br J Cancer 2001, 84(1): 94-9; Umano Y et al., Br J Cancer 2001, 84(8): 1052-7; Uchida N et al., Clin Cancer Res 2004, 10(24): 8577-86; Suda T et al., Cancer Sci 2006, 97(5): 411-9; Watanabe T et al., Cancer Sci 2005, 96(8): 498-506).
CTLs were seeded to make 1 or 10 cells/well in 96 round-bottomed microtiter plates (Nalge Nunc International). The CTLs were co-cultured with two types of Mitomycin C-treated human B lymphoblastoid cell lines at 1×10^4 cells in a total of 150 micro-1/well 5% AS-containing AIM-V medium with 30 ng/ml anti-CD3 antibody and 125 IU/ml IL-2. Ten days later, 50 micro-1 of IL-2 was added to the medium to reach a final IL-2 concentration of 125 IU/ml. On day 14, the CTL activity was tested, and the CTL clones were propagated using the same method as described above (Uchida N et al., Clin Cancer Res 2004, 10(24): 8577-86; Suda T et al., Cancer Sci 2006, 97(5): 411-9; Watanabe T et al., Cancer Sci 2005, 96(8): 498-506).
as §1

## VLDSLLVQY (a peptide derived from KOC1) [SEQ ID NO: 86]
peptide-pulsed C1R-A01 [1]
  peptide-specific CTL activity (IFN-gamma production), ELISPOT: potent IFN-gamma production
[2]; COS7 transfected with both full-length KOC1 and HLA-A*0101
  specific CTL activity of CTL clone against target cells expressing KOC1 and HLA-A*0101: specific CTL activity; also recorded: potent CTL activities
[2]; COS7 transfected with either full-length KOC1 or HLA-A*0101
  specific CTL activity of CTL clone against control cells: a significant specific CTL activity was not shown; also recorded: a significant specific CTL activity was not detected
peptide-pulsed C1R-A01 [3]; CTL clone by limiting dilution, peptide-pulsed C1R-A01, listed as KOC1-A01-9-96
  IFN-gamma production of CTL clone, ELISA: Potent IFN-gamma production
peptide-pulsed C1R-A01 [3]; CTL lines, target cells pulsed with the peptide vs not pulsed, C1R-A01
  IFN-gamma production of CTL lines, ELISA: potent IFN-gamma production
